One compound from PMC4171615, “Discovery of selective inhibitors of Glutaminase-2, which inhibit mTORC1, activate autophagy and inhibit proliferation in cancer cells” (Oncotarget, 2014) can be followed below.

Assay [1] deals with T1, KGA_H519Q (Homo sapiens, UniProt O94925, H519Q).
T1 construct: a KGA cDNA fragment of 1644 bp (residues Leu123-Leu669); His-tag (N); made in house; host or cells: Escherichia coli
T1 sequence (O94925 123-669 H519Q): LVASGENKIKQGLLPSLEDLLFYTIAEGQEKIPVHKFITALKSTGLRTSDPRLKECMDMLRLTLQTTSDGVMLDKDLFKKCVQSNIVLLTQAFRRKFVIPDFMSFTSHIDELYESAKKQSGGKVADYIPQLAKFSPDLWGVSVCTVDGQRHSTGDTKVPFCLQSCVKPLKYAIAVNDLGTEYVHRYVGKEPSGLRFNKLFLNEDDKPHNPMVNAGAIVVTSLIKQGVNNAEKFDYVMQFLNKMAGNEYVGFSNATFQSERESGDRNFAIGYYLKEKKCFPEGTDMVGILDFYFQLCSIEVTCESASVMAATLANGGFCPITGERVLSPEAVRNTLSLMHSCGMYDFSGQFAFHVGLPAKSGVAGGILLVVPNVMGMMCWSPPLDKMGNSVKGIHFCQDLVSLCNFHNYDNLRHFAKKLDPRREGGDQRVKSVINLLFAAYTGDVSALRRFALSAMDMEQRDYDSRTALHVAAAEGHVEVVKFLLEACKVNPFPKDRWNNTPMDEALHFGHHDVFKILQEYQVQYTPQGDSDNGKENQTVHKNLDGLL
In words: Glutaminase activity assay, KGA mutant H519Q. It counts as biochemical. The method, then:
(§1) Human glutaminase activity was measured using a two-step assay as described previously. A microtiter assay format was used to facilitate the collection of multiple data points. Typically, 10 μl of compound, which was dissolved in DMSO, was added to 80 μl of an initial assay mix (0.1 mM hKGA, 0.2 mM EDTA and 50 mM Tris/acetate, pH 8.6). Samples were incubated at 25°C for 10 min and then 10 μl of 200 mM glutamine were added to the reaction mix. After adding glutamine, the reactions were incubated at 37°C for 60 min and then quenched by the addition of 10 μl of 0.6 M HCl. Subsequently, 100 μl of a second reaction mixture (3.7 units of purified bovine liver glutamate dehydrogenase, 160 mM Tris/acetate [pH 9.4], 400 mM hydrazine, 5 mM ADP and 2 mM NAD^+) was added to the stopped first reaction mixture and incubated for 30 min at 25°C. The absorbance at 340 nm was measured using a Wallac Victor2V plate reader (PerkinElmer), fitted with a 340 nm excitation filter. Sample absorbance was measured against a blank, containing no human glutaminase.
(§2) Site-directed mutagenesis was performed on the pET28a(+)-GAB or pET28a(+)-KGA plasmids using PfuUltra II Fusion HS DNA polymerase (Agilent Technologies) to create the GAB and KGA mutants. […] The sequence alignment was compared with crystal structure of the GAC (PDB code: 3UO9) and the resulting model of GAB was analyzed using the Swiss-PDB server. […]

Assay [2] concerns the target T2, KGA_ H519Q/D520K (Homo sapiens, UniProt O94925, D520K/H519Q).
T2 construct: a KGA cDNA fragment of 1644 bp (residues Leu123-Leu669); His-tag (N); made in house; host or cells: Escherichia coli
T2 sequence (O94925 123-669 H519Q/D520K): T1 sequence (O94925 123-669 H519Q) with D398K
In words: Glutaminase activity assay, KGA mutant H519Q/D520K. It counts as biochemical. The method, then: as §1, §2

Numbering of substitutions follows the chain as printed.

On to `CCCCCCCCCCCCCC(CC1=CC(=O)C=C(OC)C1=O)OC(C)=O` (centres unmarked) [AV-1], for which the IC50 stood at 1670 ± 120 nM in assay [1] and 230 ± 30 nM in assay [2].
